The values below come from paper PMC5814735, “Lithium‐Catalyzed Thiol Alkylation with Tertiary and Secondary Alcohols: Synthesis of 3‐Sulfanyl‐Oxetanes as Bioisosteres” (Chemistry (Weinheim an Der Bergstrasse, Germany), 2017).

Data set [1] is described as follows: eLogD, distribution coefficient (LogD) measured by HPLC. It counts as physicochemical. How it is done: (§1) In the context of drug discovery, the distribution coefficient of a compound strongly affects how effectively the drug can reach its intended target, as well as efficacy and pharmacokinetic properties. […] To understand the effect of oxetane sulfides on this key parameter, LogD was measured for compounds 21, 2 d, and 17 d. Replacing the thioester functionality with the oxetane sulfide had the positive effect of lowering the LogD by approximately 1 Log unit (Figure 2).
(§2) Figure 2 Comparison of physicochemical parameters. eLogD=distribution coefficient (LogD) measured by HPLC. HLM=Clearance in liver microsomes; RRCK=Cell membrane permeability. TEXT PRINTED IN THE PICTURE: 21: eLogD 4.7 | 2d: eLogD 3.8 | 17d: eLogD 2.1 | 20: HLM: 7.0 μL/min/mg; RRCK: 0.1 10^-6 cm/s | 22: HLM: 7.0 μL/min/mg; RRCK: 1.3 10^-6 cm/s DOUBTS OF THE COPYIST ABOUT THIS PICTURE: 2d, eLogD: 3.8 or 3.6 (small print) / 22, RRCK: 1.3 or 1.5 or 1.8 (small print) / 20 and 22, RRCK: exponent -6 is printed very small and could be -5 or -8

Data set [2] can be described thus: RRCK cell membrane permeability. In kind it is in vitro ADME. The conditions noted are these: dog, MDCK. How it is done:
as §1, §2

The test system of another data set is RRCK. Description: RRCK cell membrane permeability. It counts as in vitro ADME. To be noted: 20 compared with methane analogue 22, in words. On the procedure: as §1, §2
A short description of data set [3]: HLM, clearance in liver microsomes. The conditions noted are these: for clearance profile by human liver microsomes, comparison: 20 compared with 22, in words; for microsomal CLint: human, human liver microsomes. It counts as in vitro ADME, human. On the procedure:
as §1, §2

`COc1ccc(SC(=O)c2ccc(OC)cc2)cc1` [compound 21] yielded a chromatographic logD in data set [1] of 4.7.
`c1ccc(SC2(c3ccccc3)CCC2)cc1` [13c] came in with a melting point of 46 to 48 °C.
Turning to `COc1ccc(C2(SCC(N)C(=O)O)COC2)cc1` (stereo not shown) [compound 20], the Papp in data set [2] amounted to 0.1 ×10⁻⁶ cm/s. In addition, the “cell permeability compared with analogue” value in the data set with RRCK was “slightly lower cell permeability than the corresponding methane analogue 22”. For the same molecule, in data set [3], the “clearance profile by human liver microsomes, comparison” value was “determined to be the same” and the microsomal CLint is 7 µL/min/mg.
Regarding `COc1ccc(CSCC(N)C(=O)O)cc1` (stereo not shown) [compound 22], the apparent permeability coefficient (Papp) in data set [2] turned out to be 1.3 ×10⁻⁶ cm/s. Moreover, in data set [3], the “clearance profile by human liver microsomes, comparison” value was “determined to be the same” and the microsomal CLint stood at 7 µL/min/mg.
`COc1ccc(C2(S(=O)(=O)c3ccc(OC)cc3)COC2)cc1` [17d] came in with a melting point of 158 to 160 °C. In data set [1], this molecule yielded a chromatographic logD of 2.1.
On the same counts, the results for `COc1ccc(SC2(c3ccc(OC)cc3)COC2)cc1` [2d] are 113 to 116 °C and 3.8.
